Laboratory results: ChEMBL document CHEMBL1201862, “PubChem BioAssay data set” (2004)
Where a name gives a salt, the structure may show the parent alone. Blank lines part the entries; values can stand above or below the molecule they belong to. Calls of active or inactive are those of the source.

Columns and labels:
Assay type in all cases: functional
[1] = target: Eukaryotic translation initiation factor 4H (Homo sapiens, UniProt Q15056); experiment: eIF4H inhibition in translation initiation, SAR follow-up (AID 435011)
[2] = target: Polyadenylate-binding protein 1 (Homo sapiens, UniProt P11940); experiment: PABP inhibition in translation initiation, SAR follow-up (AID 435018)
Chain of Polyadenylate-binding protein 1 (P11940 whole entry): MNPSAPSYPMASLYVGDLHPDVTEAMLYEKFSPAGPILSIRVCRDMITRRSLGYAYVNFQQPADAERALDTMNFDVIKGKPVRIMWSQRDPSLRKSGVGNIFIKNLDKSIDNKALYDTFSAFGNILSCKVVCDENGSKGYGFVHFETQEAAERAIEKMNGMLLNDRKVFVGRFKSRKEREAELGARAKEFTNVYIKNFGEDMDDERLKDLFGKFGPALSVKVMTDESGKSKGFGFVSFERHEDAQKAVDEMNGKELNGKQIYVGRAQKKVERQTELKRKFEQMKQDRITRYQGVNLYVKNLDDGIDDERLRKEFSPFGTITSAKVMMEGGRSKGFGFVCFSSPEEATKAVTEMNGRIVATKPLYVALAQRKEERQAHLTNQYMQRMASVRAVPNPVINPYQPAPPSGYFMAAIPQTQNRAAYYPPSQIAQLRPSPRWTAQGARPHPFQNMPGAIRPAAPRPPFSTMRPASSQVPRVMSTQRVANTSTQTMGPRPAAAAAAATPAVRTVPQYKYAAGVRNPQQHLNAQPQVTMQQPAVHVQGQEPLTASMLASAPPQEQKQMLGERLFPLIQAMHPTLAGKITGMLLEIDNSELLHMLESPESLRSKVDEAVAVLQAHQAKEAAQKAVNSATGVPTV

[3] = target: T1, Cannabinoid receptor 2 (Homo sapiens, UniProt P34972); experiment: SAR analysis of antagonists of the Cannabinoid Receptor 2 using an Image-Based Assay - Set 2. [Related pubchem assays (depositor defined):AID1961, AID1965]
T1 sequence (P34972 whole entry): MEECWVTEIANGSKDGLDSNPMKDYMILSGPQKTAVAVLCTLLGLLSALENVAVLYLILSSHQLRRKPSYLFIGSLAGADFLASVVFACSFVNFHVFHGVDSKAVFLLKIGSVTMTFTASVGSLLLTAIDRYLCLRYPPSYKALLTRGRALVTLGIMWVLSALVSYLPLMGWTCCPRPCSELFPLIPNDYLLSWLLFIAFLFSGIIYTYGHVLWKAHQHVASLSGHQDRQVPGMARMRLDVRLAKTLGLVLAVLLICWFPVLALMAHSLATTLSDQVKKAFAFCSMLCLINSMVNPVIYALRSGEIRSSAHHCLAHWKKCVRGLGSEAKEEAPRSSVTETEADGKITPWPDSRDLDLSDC

[4] = target: G-protein coupled receptor 55 (Homo sapiens, UniProt Q9Y2T6); experiment: SAR analysis of selective Agonists of GPR55 using an Image-Based Assay - Set 2. [Related pubchem assays (depositor defined):AID1961, AID1965]
Chain of G-protein coupled receptor 55 (Q9Y2T6 whole entry): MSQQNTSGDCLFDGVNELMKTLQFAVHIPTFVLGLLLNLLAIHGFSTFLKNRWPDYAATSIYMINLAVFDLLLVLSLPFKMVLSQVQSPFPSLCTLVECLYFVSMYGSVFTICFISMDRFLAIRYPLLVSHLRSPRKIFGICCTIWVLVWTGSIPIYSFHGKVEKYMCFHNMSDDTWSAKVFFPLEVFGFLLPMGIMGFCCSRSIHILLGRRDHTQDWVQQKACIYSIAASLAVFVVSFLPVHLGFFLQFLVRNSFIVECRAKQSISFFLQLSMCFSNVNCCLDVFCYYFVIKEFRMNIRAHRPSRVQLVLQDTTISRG

[5] = target: T1, Cannabinoid receptor 2; experiment: SAR analysis of agonists of the Cannabinoid Receptor 2 using an Image-Based Assay - Set 2. [Related pubchem assays (depositor defined):AID1961, AID1965]
[6] = target: T2, G-protein coupled receptor 35 (Homo sapiens, UniProt Q9HC97); experiment: SAR analysis of Agonists of the GPR35 Receptor using an Image-Based Assay - Set 3. [Related pubchem assays (depositor defined):AID1961, AID1965]
T2 sequence (Q9HC97 whole entry): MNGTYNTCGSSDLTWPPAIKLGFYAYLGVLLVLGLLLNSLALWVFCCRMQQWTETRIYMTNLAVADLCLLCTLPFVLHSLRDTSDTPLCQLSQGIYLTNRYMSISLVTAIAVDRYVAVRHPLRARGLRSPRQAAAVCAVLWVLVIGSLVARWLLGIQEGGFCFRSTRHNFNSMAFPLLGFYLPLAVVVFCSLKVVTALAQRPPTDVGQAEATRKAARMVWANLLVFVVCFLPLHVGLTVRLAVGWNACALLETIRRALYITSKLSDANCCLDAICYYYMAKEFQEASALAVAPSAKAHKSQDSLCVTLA

[7] = target: T3, Cannabinoid receptor 1 (Homo sapiens, UniProt P21554); experiment: SAR analysis of antagonists of the Cannabinoid Receptor 1 using an Image-Based Assay - Set 3. [Related pubchem assays (depositor defined):AID1961, AID1965]
T3 sequence (P21554 whole entry): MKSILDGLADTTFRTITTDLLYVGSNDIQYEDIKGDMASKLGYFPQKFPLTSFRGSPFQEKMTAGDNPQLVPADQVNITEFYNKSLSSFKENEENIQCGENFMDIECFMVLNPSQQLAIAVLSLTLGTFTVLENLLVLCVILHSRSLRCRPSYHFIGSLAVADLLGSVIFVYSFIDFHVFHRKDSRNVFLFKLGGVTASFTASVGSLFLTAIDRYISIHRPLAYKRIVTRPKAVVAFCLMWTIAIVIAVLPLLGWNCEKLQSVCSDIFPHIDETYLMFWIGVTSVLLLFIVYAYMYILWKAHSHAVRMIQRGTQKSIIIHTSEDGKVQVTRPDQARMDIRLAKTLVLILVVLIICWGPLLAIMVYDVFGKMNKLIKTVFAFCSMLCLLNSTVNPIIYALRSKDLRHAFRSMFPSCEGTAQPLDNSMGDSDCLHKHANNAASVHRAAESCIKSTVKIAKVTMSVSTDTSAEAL

[8] = target: T3, Cannabinoid receptor 1; experiment: SAR analysis of agonists of the Cannabinoid Receptor 1 using an Image-Based Assay - Set 3. [Related pubchem assays (depositor defined):AID1961, AID1965]
[9] = target: T2, G-protein coupled receptor 35; experiment: SAR analysis of Antagonists of the GPR35 Receptor using an Image-Based Assay - Set 4. [Related pubchem assays (depositor defined):[…]]
[10] = target: Melanin-concentrating hormone receptor 1 (Homo sapiens, UniProt Q99705); experiment: Late-stage fluorescence-based counterscreen for antagonists of the G-protein coupled receptor 7 (GPR7): cell-based dose response assay to identify antagonists of the melanin-concentrating hormone receptor 1 (MCHR1). [Related pubchem assays (depositor defined):AID1861, AID1880, AID1952, AID2148, AID2251, AID2257, AID485339];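 further: stimulated with 30 nM MCH peptide agonist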
Chain of Melanin-concentrating hormone receptor 1 (Q99705 whole entry): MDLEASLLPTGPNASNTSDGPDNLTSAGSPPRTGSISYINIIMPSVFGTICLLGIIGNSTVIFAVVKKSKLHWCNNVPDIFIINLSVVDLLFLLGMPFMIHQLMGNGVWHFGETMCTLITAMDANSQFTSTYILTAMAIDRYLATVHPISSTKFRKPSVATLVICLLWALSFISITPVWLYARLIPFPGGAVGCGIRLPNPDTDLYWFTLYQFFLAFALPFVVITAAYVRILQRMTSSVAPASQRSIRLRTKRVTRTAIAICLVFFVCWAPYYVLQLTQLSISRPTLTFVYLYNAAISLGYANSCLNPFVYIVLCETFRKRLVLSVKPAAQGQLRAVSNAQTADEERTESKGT

[11] = target: T4, Neuropeptides B/W receptor type 1 (Homo sapiens, UniProt P48145); experiment: GPR7 antagonist potency, late-stage follow-up, cell-based, fluorescence, dose response (AID 463251)
T4 sequence (P48145 whole entry): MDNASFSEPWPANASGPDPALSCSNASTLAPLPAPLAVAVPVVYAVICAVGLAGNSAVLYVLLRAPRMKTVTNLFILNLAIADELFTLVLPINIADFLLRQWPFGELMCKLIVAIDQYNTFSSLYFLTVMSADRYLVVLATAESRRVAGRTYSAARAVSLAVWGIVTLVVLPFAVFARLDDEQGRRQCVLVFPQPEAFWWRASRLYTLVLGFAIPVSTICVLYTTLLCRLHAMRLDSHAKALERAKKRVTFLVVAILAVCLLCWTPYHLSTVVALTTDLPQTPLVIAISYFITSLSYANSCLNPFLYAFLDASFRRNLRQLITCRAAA

[12] = cytotoxicity in NIH/3T3 mouse fibroblasts, dose response, cytotoxicity control, cell-based, mouse embryonic fibroblasts, dry powder, set 2 (AID 493247); conditions: Fibroblast
[13] = tested on: Trypanosoma cruzi; experiment: growth inhibition of intracellular Trypanosoma cruzi, dose response, cell-based, plate reader, dry powder, set 3 (AID 493197)
[14] = target: 5-hydroxytryptamine receptor 1A (Homo sapiens, UniProt P08908)
Chain of 5-hydroxytryptamine receptor 1A (P08908 whole entry): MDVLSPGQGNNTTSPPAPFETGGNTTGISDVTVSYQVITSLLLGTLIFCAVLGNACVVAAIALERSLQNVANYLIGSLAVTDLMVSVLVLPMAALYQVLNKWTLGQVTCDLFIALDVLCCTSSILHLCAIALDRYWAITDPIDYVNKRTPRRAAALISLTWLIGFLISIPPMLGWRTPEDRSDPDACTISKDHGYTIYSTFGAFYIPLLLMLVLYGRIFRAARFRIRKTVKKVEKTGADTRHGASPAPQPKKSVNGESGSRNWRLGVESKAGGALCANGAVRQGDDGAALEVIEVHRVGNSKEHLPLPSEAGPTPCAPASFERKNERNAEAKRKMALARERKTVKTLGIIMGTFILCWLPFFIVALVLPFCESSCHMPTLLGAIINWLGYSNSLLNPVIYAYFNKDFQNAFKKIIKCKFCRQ

[15] = target: T5, Short transient receptor potential channel 4 (Mus musculus, UniProt Q9QUQ5); experiment: TRPC4 positive allosteric modulators, dose response, cell-based, HEK293 TRPC4/mu-opioid, Fluo-4 calcium, EC20 DAMGO (AID 434941)
T5 sequence (Q9QUQ5 whole entry): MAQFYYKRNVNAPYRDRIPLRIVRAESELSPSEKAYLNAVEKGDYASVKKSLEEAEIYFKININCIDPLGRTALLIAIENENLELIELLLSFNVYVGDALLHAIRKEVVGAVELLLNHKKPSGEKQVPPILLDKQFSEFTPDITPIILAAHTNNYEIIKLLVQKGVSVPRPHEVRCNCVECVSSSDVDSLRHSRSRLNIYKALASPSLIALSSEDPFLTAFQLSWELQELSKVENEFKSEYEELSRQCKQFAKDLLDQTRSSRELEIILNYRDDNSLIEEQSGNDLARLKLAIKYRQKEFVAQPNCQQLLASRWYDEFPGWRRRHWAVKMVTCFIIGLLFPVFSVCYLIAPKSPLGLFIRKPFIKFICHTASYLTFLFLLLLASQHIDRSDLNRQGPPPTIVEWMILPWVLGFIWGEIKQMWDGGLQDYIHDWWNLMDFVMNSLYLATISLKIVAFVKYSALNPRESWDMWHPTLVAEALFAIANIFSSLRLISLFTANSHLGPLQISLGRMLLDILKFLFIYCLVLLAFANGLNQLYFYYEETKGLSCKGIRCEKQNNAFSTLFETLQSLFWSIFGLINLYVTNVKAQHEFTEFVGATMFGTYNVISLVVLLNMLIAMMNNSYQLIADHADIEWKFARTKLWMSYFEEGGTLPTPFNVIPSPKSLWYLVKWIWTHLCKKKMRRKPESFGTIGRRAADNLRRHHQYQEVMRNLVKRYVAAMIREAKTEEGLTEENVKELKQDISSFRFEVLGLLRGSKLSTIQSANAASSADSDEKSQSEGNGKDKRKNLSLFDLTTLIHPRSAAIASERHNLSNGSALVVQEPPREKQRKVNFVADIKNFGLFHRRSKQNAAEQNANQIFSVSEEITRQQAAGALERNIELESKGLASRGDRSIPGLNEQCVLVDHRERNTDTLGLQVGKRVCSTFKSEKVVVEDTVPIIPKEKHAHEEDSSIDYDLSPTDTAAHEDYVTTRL

Compound: COc1ccc([N+](=O)[O-])cc1NC(=O)COC(=O)c1ccccc1C(=O)c1ccccc1
IC50 [1]: > 100 µM (inactive)
IC50 [2]: > 100 µM (inactive)

Compound: O=C(Cc1cccnc1)N/N=C/c1ccc([N+](=O)[O-])o1
AC50 [12]: 23.1 µM (active)
AC50 [13]: 0.131 µM (active)

Compound: Cc1cc(C(C)(C)C)c(O)c(C)c1CC1=NCCN1 [OXYMETAZOLINE HYDROCHLORIDE]
EC50 [14]: 0.07 µM (active)
EC50 [15]: 3.35 µM (active)

Next, values leading:

IC50 [3]: > 32 µM (inactive)
EC50 [4]: > 32 µM (inactive)
EC50 [5]: > 32 µM (inactive)
EC50 [6]: > 32 µM (inactive)
IC50 [7]: > 32 µM (inactive)
EC50 [8]: > 32 µM (inactive)
IC50 [9]: > 32 µM (inactive)
Compound: COc1ccc(-c2csc(NC(=O)CSc3nnc4c(C)cc5cc6c(cc5n34)OCO6)n2)cc1

IC50 [10]: 3.1 µM (active)
IC50 [11]: 1.6 µM (active)
Compound: CC(C)c1ccc(-n2ncc(Cl)c(Oc3cccc(N(C)C)c3)c2=O)cc1
